Drawing on ChEMBL document CHEMBL2407075, “Sulphonamido-quinoxalines: search for anticancer agent” (Eur J Med Chem, 2013), this text covers bioavailability for eight compounds.

This data set is described as follows: Oral bioavailability in human. The format is ADME, organism-based. Particulars: in silico prediction.

One may read the bioavailability as the share of a dose that reaches the circulation, judged against a reference dose that is usually intravenous. `CC(=O)NS(=O)(=O)c1ccc2nc(-c3ccccc3)c(-c3ccccc3)nc2c1`: the bioavailability is 94.7%. Next, `O=S(=O)(Nc1ccc2ccccc2c1)c1ccc2nc(-c3ccccc3)c(-c3ccccc3)nc2c1`: 100%; `O=S(=O)(Nc1ccc(O)cc1)c1ccc2nc(-c3ccccc3)c(-c3ccccc3)nc2c1`: 93.9%. The value for `O=[N+]([O-])c1ccc(NS(=O)(=O)c2ccc3nc(-c4ccccc4)c(-c4ccccc4)nc3c2)cc1` was 87.6%. Next, `O=[N+]([O-])c1cccc(NS(=O)(=O)c2ccc3nc(-c4ccccc4)c(-c4ccccc4)nc3c2)c1`: 85.6%; `O=C(O)c1ccccc1NS(=O)(=O)c1ccc2nc(-c3ccccc3)c(-c3ccccc3)nc2c1`: 83.6%; `Cc1ccnc(NS(=O)(=O)c2ccc3nc(-c4ccccc4)c(-c4ccccc4)nc3c2)c1`: 100%. For the compound `CC(=O)c1cccc(NS(=O)(=O)c2ccc3nc(-c4ccccc4)c(-c4ccccc4)nc3c2)c1`, the bioavailability was 96.9%.
